{"source": "patent US20230227427A1", "about": "“IL-17A MODULATORS” (SANOFI, priority 2010, published 2023)"}
{"molecular_target": "T1, human recombinant IL-17A (Homo sapiens, UniProt Q16552)", "T1 construct": "purchased R&D Systems 7955-IL/CF", "T1 sequence (Q16552 24-155)": "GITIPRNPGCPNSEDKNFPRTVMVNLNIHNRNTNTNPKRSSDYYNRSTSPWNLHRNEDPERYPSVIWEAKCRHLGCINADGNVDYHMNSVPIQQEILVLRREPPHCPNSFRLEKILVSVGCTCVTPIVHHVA", "assay": "IL-17A AlphaLISA assay (block binding of IL-17A to its receptor IL-17RA)", "conditions": "compounds pre-incubated with the IL-17A for 30 min (indicated by * in Table A); read-out: AlphaLISA pIC50 (converted)", "summary_of_the_method": "(§1)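 PBS with 0.05% Tween-20 and 0.1% BSA. IL-17A stock 7.5 nM, IL-17RA/Fc stock 5 nM; compound–cytokine pre-incubation 24 h at RT, or 30 min where marked, then 90 min with receptor. pIC50 from 4-parameter logistic AlphaLISA signal, normalised to DMSO and 6 μM reference inhibitor.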", "units": {"IC50": "nM"}}
{"smiles": "Cn1nccc1C(=O)N[C@H](C(=O)Nc1ccc(-c2c(C#N)cnn2C)cn1)[C@H]1CC[C@H](C)CC1", "note": "[Example 193, N—((S)-2-((5-(4-cyano-1-methyl-1H-pyrazol-5-yl)pyridin-2-yl)amino)-1-((1r,4S)-4-methylcyclohexyl)-2-oxoethyl)-1-methyl-1H-pyrazole-5-carboxamide]", "IC50": 251}
{"smiles": "Cc1nnn(CC(=O)N(C)C)c1-c1ccc(NC(=O)[C@@H](NC(=O)c2ccnn2C)C2CCCCCC2)nc1", "note": "[Example 190, (S)—N-(1-cycloheptyl-2-((5-(1-(2-(dimethylamino)-2-oxoethyl)-4-methyl-1H-1,2,3-triazol-5-yl)pyridin-2-yl)amino)-2-oxoethyl)-1-methyl-1H-pyrazole-5-carboxamide]", "IC50": 794}
{"molecular_target": "T1, human recombinant IL-17A", "assay": "IL-17A AlphaLISA assay (block binding of IL-17A to its receptor IL-17RA)", "conditions": "compounds pre-incubated with the IL-17A for 24 h at room temperature; read-out: AlphaLISA pIC50 (converted)", "summary_of_the_method": "as §1", "units": {"IC50": "nM"}}
{"smiles": "Cc1c(-c2ccc(NC(=O)[C@@H](NC(=O)c3ccnn3C)[C@H]3CC[C@H](C)CC3)cc2)ccc(=O)n1C", "note": "[Example 33, N—((S)-2-((4-(1,2-dimethyl-6-oxo-1,6-dihydropyridin-3-yl)phenyl)amino)-1-((1r,4S)-4-methylcyclohexyl)-2-oxoethyl)-1-methyl-1H-pyrazole-5-carboxamide]", "IC50": 79.4}
{"smiles": "Cn1nccc1C(=O)N[C@H](C(=O)Nc1ccc(-c2ccc(=O)n(C)c2)cc1)C(c1ccccc1)c1ccccc1", "note": "[Example 51, (S)-1-methyl-N-(1-((4-(1-methyl-6-oxo-1,6-dihydropyridin-3-yl)phenyl)amino)-1-oxo-3,3-diphenylpropan-2-yl)-1H-pyrazole-5-carboxamide]", "IC50": 25.1}
{"smiles": "CNc1cnccc1-c1ccc(NC(=O)[C@@H](NC(=O)c2ccnn2C)C(c2ccccc2)c2ccccc2)cc1", "note": "[Example 7, (S)-1-methyl-N-(1-((4-(3-(methylamino)pyridin-4-yl)phenyl)amino)-1-oxo-3,3-diphenylpropan-2-yl)-1H-pyrazole-5-carboxamide]", "IC50": 12.6}
{"smiles": "Cc1n[nH]cc1-c1ccc(NC(=O)[C@@H](NC(=O)c2ccnn2C)C(c2ccccc2)c2ccccc2)cc1F", "note": "[Example 65, (S)—N-(1-((3-fluoro-4-(3-methyl-1H-pyrazol-4-yl)phenyl)amino)-1-oxo-3,3-diphenylpropan-2-yl)-1-methyl-1H-pyrazole-5-carboxamide]", "IC50": 50.1}
{"smiles": "Cn1nccc1C(=O)N[C@H](C(=O)Nc1ccc(-c2ccnc3c2CCN3)cc1)C(c1ccccc1)c1ccccc1", "note": "[Example 22, (S)—N-(1-((4-(2,3-dihydro-1H-pyrrolo[2,3-b]pyridin-4-yl)phenyl)amino)-1-oxo-3,3-diphenylpropan-2-yl)-1-methyl-1H-pyrazole-5-carboxamide]", "IC50": 25.1}
{"smiles": "COc1cnccc1-c1c(F)cc(NC(=O)[C@@H](NC(=O)c2ccnn2C)C(c2ccccc2)c2ccccc2)cc1F", "note": "[Example 30, (S)—N-(1-((3,5-difluoro-4-(3-methoxypyridin-4-yl)phenyl)amino)-1-oxo-3,3-diphenylpropan-2-yl)-1-methyl-1H-pyrazole-5-carboxamide]", "IC50": 39.8}
